For experiment [1], the target named is Receptor-interacting serine/threonine-protein kinase 3 (Homo sapiens, UniProt Q9Y572).
Experiment [2] addresses Serine/threonine-protein kinase pim-1 (Homo sapiens, UniProt P11309).
For experiment [3], the target named is Tyrosine-protein kinase HCK (Homo sapiens, UniProt P08631).
The target of experiment [4] is U5 small nuclear ribonucleoprotein 200 kDa helicase (Homo sapiens, UniProt O75643).
Experiment [5] has as its target T1, Phosphatidylinositol 5-phosphate 4-kinase type-2 gamma (Homo sapiens, UniProt Q8TBX8).
T1 sequence (Q8TBX8 whole entry): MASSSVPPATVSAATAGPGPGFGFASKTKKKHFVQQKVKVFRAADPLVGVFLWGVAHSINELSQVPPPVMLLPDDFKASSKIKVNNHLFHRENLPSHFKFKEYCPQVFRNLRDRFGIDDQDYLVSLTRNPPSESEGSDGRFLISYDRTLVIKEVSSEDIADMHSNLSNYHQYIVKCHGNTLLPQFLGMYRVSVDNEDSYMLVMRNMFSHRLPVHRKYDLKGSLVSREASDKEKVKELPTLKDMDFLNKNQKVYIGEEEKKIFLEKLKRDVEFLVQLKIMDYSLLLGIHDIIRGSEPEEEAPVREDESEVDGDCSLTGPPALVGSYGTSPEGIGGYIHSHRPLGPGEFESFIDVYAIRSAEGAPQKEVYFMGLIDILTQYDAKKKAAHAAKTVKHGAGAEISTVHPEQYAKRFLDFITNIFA

Experiment [6] deals with Tyrosine-protein kinase FRK (Homo sapiens, UniProt P42685).
Sequence of Tyrosine-protein kinase FRK (P42685 whole entry): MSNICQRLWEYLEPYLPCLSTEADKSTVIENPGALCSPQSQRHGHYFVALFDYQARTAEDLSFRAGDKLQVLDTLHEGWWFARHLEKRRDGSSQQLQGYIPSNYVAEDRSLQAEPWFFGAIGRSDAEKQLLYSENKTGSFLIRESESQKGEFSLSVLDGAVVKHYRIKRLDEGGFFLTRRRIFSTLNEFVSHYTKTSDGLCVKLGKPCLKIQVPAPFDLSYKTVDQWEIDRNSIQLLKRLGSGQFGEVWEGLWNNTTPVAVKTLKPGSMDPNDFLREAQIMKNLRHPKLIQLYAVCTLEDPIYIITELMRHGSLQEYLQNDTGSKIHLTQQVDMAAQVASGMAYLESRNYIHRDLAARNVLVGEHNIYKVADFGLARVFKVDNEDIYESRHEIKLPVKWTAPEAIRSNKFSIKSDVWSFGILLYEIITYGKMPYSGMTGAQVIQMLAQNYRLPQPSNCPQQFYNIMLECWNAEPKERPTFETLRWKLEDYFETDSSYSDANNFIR
Experiment [7] concerns the target ATP-dependent RNA helicase DDX3X (Homo sapiens, UniProt O00571).
Experiment [8] has as its target Maternal embryonic leucine zipper kinase (Homo sapiens, UniProt Q14680).
Experiment [9] deals with T2, Cysteine--tRNA ligase, cytoplasmic (Homo sapiens, UniProt P49589).
T2 sequence (P49589 whole entry): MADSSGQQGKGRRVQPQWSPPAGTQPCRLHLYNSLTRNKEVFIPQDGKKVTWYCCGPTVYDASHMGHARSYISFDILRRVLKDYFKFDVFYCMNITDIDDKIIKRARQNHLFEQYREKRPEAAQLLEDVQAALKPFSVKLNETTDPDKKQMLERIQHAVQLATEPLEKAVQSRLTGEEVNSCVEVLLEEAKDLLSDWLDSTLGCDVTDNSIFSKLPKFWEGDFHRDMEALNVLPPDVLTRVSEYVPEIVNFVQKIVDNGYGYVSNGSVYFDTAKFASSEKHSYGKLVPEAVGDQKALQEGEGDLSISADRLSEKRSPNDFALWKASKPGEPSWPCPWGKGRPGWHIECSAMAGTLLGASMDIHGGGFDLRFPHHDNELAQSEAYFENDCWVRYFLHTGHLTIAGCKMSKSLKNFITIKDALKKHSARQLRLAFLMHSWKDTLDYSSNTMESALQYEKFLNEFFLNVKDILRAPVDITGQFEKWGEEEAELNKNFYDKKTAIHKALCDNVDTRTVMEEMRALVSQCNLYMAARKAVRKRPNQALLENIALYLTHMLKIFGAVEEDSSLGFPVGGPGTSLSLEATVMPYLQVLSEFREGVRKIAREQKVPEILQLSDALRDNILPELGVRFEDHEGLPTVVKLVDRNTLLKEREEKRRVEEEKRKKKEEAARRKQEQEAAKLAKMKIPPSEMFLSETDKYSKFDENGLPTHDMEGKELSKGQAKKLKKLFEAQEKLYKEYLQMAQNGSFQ

Experiment [10] addresses T3, ATP-dependent 6-phosphofructokinase, platelet type (Homo sapiens, UniProt Q01813).
T3 sequence (Q01813 whole entry): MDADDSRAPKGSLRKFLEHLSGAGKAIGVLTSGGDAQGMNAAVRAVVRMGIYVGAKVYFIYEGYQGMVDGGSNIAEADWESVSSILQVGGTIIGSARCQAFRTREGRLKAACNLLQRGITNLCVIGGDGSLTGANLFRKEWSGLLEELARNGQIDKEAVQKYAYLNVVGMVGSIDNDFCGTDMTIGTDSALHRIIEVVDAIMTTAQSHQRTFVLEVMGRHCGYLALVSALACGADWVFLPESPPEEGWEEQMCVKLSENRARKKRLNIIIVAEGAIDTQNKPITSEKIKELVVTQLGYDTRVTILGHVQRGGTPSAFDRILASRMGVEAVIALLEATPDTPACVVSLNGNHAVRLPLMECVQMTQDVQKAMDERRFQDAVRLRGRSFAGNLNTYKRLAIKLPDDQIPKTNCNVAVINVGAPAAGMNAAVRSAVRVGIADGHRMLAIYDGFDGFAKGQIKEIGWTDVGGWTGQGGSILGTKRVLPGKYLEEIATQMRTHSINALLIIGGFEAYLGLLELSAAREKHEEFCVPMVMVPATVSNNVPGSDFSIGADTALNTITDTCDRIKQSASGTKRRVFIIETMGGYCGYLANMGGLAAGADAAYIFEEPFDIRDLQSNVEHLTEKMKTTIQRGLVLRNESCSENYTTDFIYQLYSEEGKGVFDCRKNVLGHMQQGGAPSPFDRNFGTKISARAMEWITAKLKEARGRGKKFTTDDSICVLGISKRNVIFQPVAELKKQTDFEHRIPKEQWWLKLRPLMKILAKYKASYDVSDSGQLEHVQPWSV

Experiment [11] has as its target Tyrosine-protein kinase Fer (Homo sapiens, UniProt P16591).

Structures are written as SMILES. Calls of active or inactive are those of the source. Cut-off read from the data, not from the text of the source, for most assays here: actives have a measured Kd and inactives only a lower limit.
Note: in the data inactive means no Kd found up to 30 µM.

Sequence of Tyrosine-protein kinase Fer (P16591 whole entry): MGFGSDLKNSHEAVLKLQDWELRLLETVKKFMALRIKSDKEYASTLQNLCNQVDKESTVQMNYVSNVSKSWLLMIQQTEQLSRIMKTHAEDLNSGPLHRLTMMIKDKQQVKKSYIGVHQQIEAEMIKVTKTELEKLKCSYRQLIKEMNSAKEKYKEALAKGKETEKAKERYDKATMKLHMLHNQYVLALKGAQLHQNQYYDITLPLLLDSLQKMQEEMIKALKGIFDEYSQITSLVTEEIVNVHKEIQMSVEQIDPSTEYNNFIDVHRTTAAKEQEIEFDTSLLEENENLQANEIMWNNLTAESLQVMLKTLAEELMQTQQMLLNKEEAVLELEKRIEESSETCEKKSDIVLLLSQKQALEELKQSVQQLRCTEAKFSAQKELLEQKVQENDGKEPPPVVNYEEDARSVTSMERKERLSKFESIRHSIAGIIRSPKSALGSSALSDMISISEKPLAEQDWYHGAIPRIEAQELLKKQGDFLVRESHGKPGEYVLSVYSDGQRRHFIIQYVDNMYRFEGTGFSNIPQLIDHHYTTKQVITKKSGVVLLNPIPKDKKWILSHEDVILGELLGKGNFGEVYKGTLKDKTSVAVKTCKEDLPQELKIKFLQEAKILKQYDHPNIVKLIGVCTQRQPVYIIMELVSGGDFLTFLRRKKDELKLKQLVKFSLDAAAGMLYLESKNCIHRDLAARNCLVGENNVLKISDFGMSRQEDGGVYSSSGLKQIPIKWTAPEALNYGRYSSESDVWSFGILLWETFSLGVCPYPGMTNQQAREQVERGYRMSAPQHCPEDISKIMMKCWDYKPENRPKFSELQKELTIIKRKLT
Sequence of Serine/threonine-protein kinase pim-1 (P11309 whole entry): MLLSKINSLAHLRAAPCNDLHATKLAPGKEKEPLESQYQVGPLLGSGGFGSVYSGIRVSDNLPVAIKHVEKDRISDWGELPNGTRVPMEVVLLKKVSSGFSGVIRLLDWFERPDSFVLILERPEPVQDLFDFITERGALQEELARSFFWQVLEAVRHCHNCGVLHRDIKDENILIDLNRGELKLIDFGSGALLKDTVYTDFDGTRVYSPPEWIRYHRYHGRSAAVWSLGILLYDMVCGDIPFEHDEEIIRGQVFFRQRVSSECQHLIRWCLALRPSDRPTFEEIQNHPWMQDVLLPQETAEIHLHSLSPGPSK
Sequence of Tyrosine-protein kinase HCK (P08631 whole entry): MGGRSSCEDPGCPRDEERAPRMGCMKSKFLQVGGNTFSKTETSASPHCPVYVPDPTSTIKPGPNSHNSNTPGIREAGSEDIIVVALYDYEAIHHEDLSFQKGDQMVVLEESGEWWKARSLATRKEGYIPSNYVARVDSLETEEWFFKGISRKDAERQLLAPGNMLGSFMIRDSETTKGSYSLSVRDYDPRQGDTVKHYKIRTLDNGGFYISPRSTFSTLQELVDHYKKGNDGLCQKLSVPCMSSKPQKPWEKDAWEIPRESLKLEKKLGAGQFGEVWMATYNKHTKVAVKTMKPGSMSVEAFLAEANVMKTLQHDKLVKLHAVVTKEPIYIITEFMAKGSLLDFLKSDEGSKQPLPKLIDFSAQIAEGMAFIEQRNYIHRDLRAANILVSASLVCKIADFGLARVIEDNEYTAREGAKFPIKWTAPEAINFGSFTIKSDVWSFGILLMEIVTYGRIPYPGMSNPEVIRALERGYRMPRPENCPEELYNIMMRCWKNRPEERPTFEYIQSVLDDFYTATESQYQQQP
Sequence of Receptor-interacting serine/threonine-protein kinase 3 (Q9Y572 whole entry): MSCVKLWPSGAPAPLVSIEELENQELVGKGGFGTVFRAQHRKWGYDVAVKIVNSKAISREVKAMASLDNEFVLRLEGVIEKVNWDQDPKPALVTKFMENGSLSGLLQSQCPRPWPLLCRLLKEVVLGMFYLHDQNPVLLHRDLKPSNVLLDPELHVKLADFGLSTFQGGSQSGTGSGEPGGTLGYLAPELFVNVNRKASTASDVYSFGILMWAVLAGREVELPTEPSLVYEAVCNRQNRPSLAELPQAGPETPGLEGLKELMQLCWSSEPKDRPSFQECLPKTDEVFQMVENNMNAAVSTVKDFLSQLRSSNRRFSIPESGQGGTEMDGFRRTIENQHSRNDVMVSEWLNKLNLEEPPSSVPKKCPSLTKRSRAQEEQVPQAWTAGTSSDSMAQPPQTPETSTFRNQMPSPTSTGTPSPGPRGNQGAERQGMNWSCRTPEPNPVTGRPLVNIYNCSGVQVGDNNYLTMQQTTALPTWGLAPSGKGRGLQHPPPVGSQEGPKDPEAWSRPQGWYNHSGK
Sequence of Maternal embryonic leucine zipper kinase (Q14680 whole entry): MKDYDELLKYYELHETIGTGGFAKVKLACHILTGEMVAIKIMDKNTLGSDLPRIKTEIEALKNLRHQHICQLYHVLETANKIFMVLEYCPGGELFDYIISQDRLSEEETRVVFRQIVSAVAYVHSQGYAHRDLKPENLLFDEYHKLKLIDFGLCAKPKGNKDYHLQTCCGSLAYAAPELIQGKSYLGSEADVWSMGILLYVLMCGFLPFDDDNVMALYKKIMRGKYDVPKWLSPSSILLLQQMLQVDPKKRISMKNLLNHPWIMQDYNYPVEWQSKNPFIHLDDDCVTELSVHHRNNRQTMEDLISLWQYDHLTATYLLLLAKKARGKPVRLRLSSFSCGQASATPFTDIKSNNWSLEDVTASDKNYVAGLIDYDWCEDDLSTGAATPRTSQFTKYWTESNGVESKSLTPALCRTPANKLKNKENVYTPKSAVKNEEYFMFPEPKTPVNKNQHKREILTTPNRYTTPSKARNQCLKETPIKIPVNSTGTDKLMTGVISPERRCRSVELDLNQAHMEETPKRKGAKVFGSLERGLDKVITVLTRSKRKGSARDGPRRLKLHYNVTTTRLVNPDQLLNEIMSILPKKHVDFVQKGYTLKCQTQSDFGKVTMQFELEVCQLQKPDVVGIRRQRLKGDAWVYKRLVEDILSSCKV
Sequence of ATP-dependent RNA helicase DDX3X (O00571 whole entry): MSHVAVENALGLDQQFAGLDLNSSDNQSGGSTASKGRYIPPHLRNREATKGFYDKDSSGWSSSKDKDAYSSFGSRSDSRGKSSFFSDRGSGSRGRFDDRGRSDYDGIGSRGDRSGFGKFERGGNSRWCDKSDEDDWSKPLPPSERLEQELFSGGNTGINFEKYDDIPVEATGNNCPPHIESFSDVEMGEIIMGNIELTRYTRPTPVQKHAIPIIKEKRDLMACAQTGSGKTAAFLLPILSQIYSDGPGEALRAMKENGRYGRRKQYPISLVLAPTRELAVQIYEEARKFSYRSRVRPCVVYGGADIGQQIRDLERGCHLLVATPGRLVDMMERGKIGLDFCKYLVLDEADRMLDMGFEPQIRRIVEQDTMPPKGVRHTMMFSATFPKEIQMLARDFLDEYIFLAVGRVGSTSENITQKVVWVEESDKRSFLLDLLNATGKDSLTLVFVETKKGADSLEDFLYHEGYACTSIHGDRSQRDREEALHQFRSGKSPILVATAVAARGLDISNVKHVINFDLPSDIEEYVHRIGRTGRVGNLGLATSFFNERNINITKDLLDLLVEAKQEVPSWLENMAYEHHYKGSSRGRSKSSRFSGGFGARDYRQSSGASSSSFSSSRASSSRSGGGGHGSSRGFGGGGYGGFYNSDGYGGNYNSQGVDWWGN

Turning to `CCOc1ccn(-c2ccc(F)cc2)c(=O)c1C(=O)Nc1ccc(Oc2ccnc(N)c2Cl)c(F)c1` [BMS-777607], the Kd in [1] was > 30 µM (inactive); in [2], > 30 µM (inactive); in experiment [3] it was > 30 µM (inactive); in experiment [4], > 30 µM (inactive); in [5], > 30 µM (inactive); in [6], 0.33 µM (active). Besides, the Kd in experiment [7], in experiment [8], in experiment [9], in experiment [10] and in [11] was > 30 µM (inactive) in each case.
In the case of `O=C(NC[C@H](O)CO)c1ccncc1Nc1ccc(I)cc1F` [PIMASERTIB], the Kd in experiment [1], in [2], in [3], in experiment [4], in experiment [5] and in experiment [6] was > 30 µM (inactive) throughout. Moreover, the Kd in experiment [7], in [8], in experiment [9], in experiment [10] and in [11] was > 30 µM (inactive) in each case.
Consider `c1cc(OCCN2CCCCC2)cc(-c2n[nH]c3ccc(-c4nc[nH]n4)cc23)c1` [CC-401], for which the Kd in [1], in experiment [2], in [3], in [4], in experiment [5] and in experiment [6] was > 30 µM (inactive) throughout. Besides, the Kd in experiment [7] is > 30 µM (inactive); in [8] it was 0.217 µM (active); in [9] it was > 30 µM (inactive); in experiment [10] it was > 30 µM (inactive); in [11], > 30 µM (inactive).
For the molecule `NC(=O)c1ccc(N(C(N)=O)c2c(F)cccc2F)nc1-c1ccc(F)cc1F` [VX-702], the Kd in experiment [1], in experiment [2], in [3], in [4], in experiment [5] and in experiment [6] was > 30 µM (inactive) throughout. Also, the Kd in experiment [7], in [8], in [9], in experiment [10] and in experiment [11] was > 30 µM (inactive) throughout.
For `CC(C)(O)CC(=O)NCCn1ccc2ncnc(Nc3ccc(Oc4cccc(C(F)(F)F)c4)c(Cl)c3)c21` [TAK-285], the Kd in [1], in [2], in experiment [3], in [4], in [5] and in experiment [6] was > 30 µM (inactive) in each case. In addition, the Kd in experiment [7], in experiment [8], in [9], in experiment [10] and in experiment [11] was > 30 µM (inactive) throughout.
As for `COc1cc2ncnc(Nc3ccc(O)cc3)c2cc1OC` [WHI-P131], the Kd in [1], in [2], in experiment [3], in experiment [4], in [5] and in [6] was > 30 µM (inactive) in each case. For the same molecule, the Kd in experiment [7], in [8], in experiment [9], in experiment [10] and in experiment [11] was > 30 µM (inactive) in each case.
As for `S=C(NCc1ccc2c(c1)OCO2)N1CCN(c2ncnc3c2oc2ccccc23)CC1` [AMUVATINIB], the Kd in experiment [1], in [2], in [3], in experiment [4], in [5] and in [6] was > 30 µM (inactive) throughout. Moreover, the Kd in [7], in [8], in experiment [9], in [10] and in experiment [11] was > 30 µM (inactive) each time.
As for `COc1cc(F)c(F)c(Nc2ccc(I)cc2F)c1NS(=O)(=O)C1(C[C@H](O)CO)CC1` [REFAMETINIB], the Kd in experiment [1], in experiment [2], in experiment [3], in experiment [4], in [5] and in experiment [6] was > 30 µM (inactive) throughout. Besides, the Kd in [7], in [8], in experiment [9], in [10] and in experiment [11] was > 30 µM (inactive) in each case.
Turning to `Cc1ccc(C(=O)Nc2ccc(Oc3cc4cnn(C)c4cc3-c3cn[nH]c3)c(F)c2)c(=O)n1-c1ccc(F)cc1` [MERESTINIB], the Kd in [1], in experiment [2], in [3], in [4], in [5] and in experiment [6] was > 30 µM (inactive) in each case. Further, the Kd in experiment [7], in [8], in experiment [9], in experiment [10] and in experiment [11] was > 30 µM (inactive) each time.
In the case of `C=CC(=O)Nc1cc(Nc2nccc(-c3cn(C)c4ccccc34)n2)c(OC)cc1N(C)CCN(C)C` [OSIMERTINIB], the Kd in experiment [1] is > 30 µM (inactive); in experiment [2] it was > 30 µM (inactive); in experiment [3], > 30 µM (inactive); in [4], > 30 µM (inactive); in experiment [5], 2.97 µM (active); in experiment [6], > 30 µM (inactive). The Kd in experiment [7] was > 30 µM (inactive); in experiment [8], > 30 µM (inactive); in [9], 0.012 µM; in experiment [10], > 30 µM (inactive); in experiment [11], > 30 µM (inactive).
Regarding `NC[C@@](O)(c1ccc(Cl)cc1)c1ccc(-c2cn[nH]c2)cc1` [AT-13148], the Kd in [1], in experiment [2], in experiment [3], in experiment [4], in experiment [5] and in experiment [6] was > 30 µM (inactive) in each case. For the same molecule, the Kd in experiment [7], in experiment [8], in [9], in [10] and in experiment [11] was > 30 µM (inactive) each time.

These data come from ChEMBL document CHEMBL3991601, “The target landscape of clinical kinase drugs” (Science, 2017).
